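Values below derive from 48-hour exposures of cells grown in 96-well plates, with endpoints linearly interpolated between the two concentrations bracketing the appropriate inhibition level. TGI denotes the concentration required for complete inhibition of growth.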
Tests used:
Experiment in all cases: NCI-60 cell line screen, 48 h
[1] = system: COLO 205 colon
[2] = system: MDA-N
[3] = system: NCI-H23 lung
[4] = system: SK-MEL-28 melanoma
[5] = system: OVCAR-5 ovarian
[6] = system: HCT-15 colon
[7] = system: M14 melanoma
[8] = system: SNB-19 CNS

Row | Structure (SMILES) | TGI [1] | TGI [2] | TGI [3] | TGI [4] | TGI [5] | TGI [6] | TGI [7] | TGI [8]
1 | CN1C(=O)[C@](C)(Cc2ccc(F)cc2)N(C(=O)OC(C)(C)C)[C@@H]1C(C)(C)C | 39.7 µM | > 100 µM | > 100 µM | > 100 µM | > 100 µM | > 100 µM | > 100 µM | > 100 µM
2 | O=C1CSC2=NC3=C(COC/C3=C\c3ccc(F)cc3)C(c3ccc(F)cc3)N12 (stereo unspecified) | > 100 µM | > 100 µM | > 100 µM | – | > 100 µM | > 100 µM | > 100 µM | > 100 µM
3 | COc1cc(C)c(S(=O)(=O)N(CCCN)OCCCN)c(C)c1C | 41.2 µM | > 100 µM | > 100 µM | > 100 µM | > 100 µM | > 100 µM | 65.2 µM | > 100 µM
4 | CC(=O)OCC12C(OC(C)=O)C[C@@H](C)C3(CC(c4ccoc4)OC3=O)C1CCC(OC(C)=O)C21CO1 (stereo partly specified) | > 100 µM | > 100 µM | > 100 µM | > 100 µM | > 100 µM | > 100 µM | > 100 µM | > 100 µM
5 | CC(=O)c1c2c(cc3c1CCC3)CCC2 | > 100 µM | > 100 µM | > 100 µM | > 100 µM | > 100 µM | > 100 µM | > 100 µM | > 100 µM
6 | COc1ccc2c(-c3csc(-c4c[nH]c5ccccc45)n3)c[nH]c2c1 | > 57.7 µM | > 100 µM | > 66.5 µM | > 81.6 µM | > 50.7 µM | > 100 µM | 53.1 µM | > 100 µM
7 | CCOC(=O)CCN1C(=O)c2c(NC(=O)C(=O)O)cccc2S1(=O)=O | > 100 µM | > 100 µM | > 100 µM | > 100 µM | > 100 µM | > 100 µM | > 100 µM | > 100 µM
8 | Fc1sc2c(c1F)C1CCC2C1 (stereo unspecified) | > 100 µM | > 100 µM | > 100 µM | > 100 µM | > 100 µM | > 100 µM | > 100 µM | > 100 µM
9 | CC1CN=C(N(C(=O)Nc2ccccc2)C2CCCCC2)S1 (stereo unspecified) | 37 µM | 30.1 µM | 33.8 µM | 28.2 µM | 28.9 µM | 28.9 µM | – | 81.8 µM
10 | C=C1CC2C[C@H](OS(=O)(=O)c3ccc(C)cc3)C(C1)N2C (stereo partly specified) | > 100 µM | > 100 µM | > 100 µM | > 100 µM | – | > 100 µM | > 100 µM | > 100 µM
11 | O=S1(=O)OCCOS(=O)(=O)C1S(=O)(=O)c1cccc2ccccc12 | > 100 µM | > 100 µM | > 100 µM | > 100 µM | > 100 µM | > 100 µM | > 100 µM | –
12 | COC1OC(=O)C(OC)C(OC)C1OC (stereo unspecified) | > 100 µM | > 100 µM | – | > 100 µM | > 100 µM | > 100 µM | > 100 µM | > 100 µM
13 | Nc1nn2cc(-c3ccccc3)[n+](CC(=O)c3ccccc3)c2s1 | 29.3 µM | > 100 µM | 51.6 µM | – | 53.6 µM | > 100 µM | 40.6 µM | 52.9 µM
14 | Oc1[nH]c2ccccc2c1N=NC(=S)NCc1ccccn1 | 13.6 µM | 19.9 µM | 14.9 µM | 21.5 µM | 22.7 µM | 33.2 µM | 4.89 µM | 15.2 µM
15 | CC1CC2OC(=N)C1(C#N)C2(C#N)C#N (stereo unspecified) | 24.8 µM | 33 µM | 63.7 µM | > 100 µM | 48.5 µM | 30.6 µM | > 100 µM | > 100 µM
16 | O=C(O)CCC(NC(=O)/C(=C/c1ccccc1)NC(=O)c1ccccc1)C(=O)O (stereo unspecified) | > 100 µM | > 100 µM | > 100 µM | > 100 µM | > 100 µM | > 100 µM | > 100 µM | > 100 µM
17 | Cc1nc(C)c(C(=O)NNC(=O)c2ccccc2)cc1C(=O)NNC(=O)c1ccccc1 | > 100 µM | > 100 µM | > 100 µM | – | > 100 µM | > 100 µM | > 100 µM | > 100 µM
18 | COc1ccc(C(OCC2OC(n3ccc(Oc4c(F)c(F)c(F)c(F)c4F)nc3=O)CC2OP(OCCC#N)N(C(C)C)C(C)C)(c2ccccc2)c2ccc(OC)cc2)cc1 (stereo unspecified) | > 100 µM | > 100 µM | > 100 µM | > 100 µM | > 100 µM | > 100 µM | > 100 µM | > 100 µM
19 | C/C(=N/NC(=O)c1ccccc1Nc1ccccc1C(=O)N/N=C(\C)c1ccc(C)cc1)c1ccc(C)cc1 | > 100 µM | > 100 µM | > 100 µM | > 100 µM | > 100 µM | > 100 µM | > 100 µM | > 100 µM
20 | CCOC(=O)C1=C(C)N(c2ccc(Cl)cc2)C2(O)C=CC(=O)C3C(=O)N(c4ccccc4)C(=O)C132 (stereo unspecified) | 3.26 µM | 8.92 µM | 4.75 µM | 3.06 µM | 4.15 µM | 4.37 µM | 3.29 µM | 8.1 µM
21 | N#Cc1nc(-c2ccccn2)c(-c2ccccn2)nc1C#N | 10.6 µM | > 100 µM | 16.7 µM | 45.6 µM | 10 µM | > 42 µM | 8.46 µM | 22 µM
22 | Cc1nc2cccc(F)c2c(=O)n1-c1nnc(C2CC2)s1 | > 10 µM | > 10 µM | > 10 µM | > 10 µM | > 10 µM | > 10 µM | > 10 µM | > 10 µM
23 | O=C(c1cccs1)N(C(=O)N1CCCCC1)c1ccccc1 | > 100 µM | > 100 µM | > 100 µM | > 100 µM | – | > 100 µM | > 100 µM | > 100 µM
24 | COC1OC2COC(c3ccccc3)OC2C(OC(=S)c2ccccc2)C1O (stereo unspecified) | > 100 µM | > 100 µM | > 100 µM | > 100 µM | > 100 µM | > 100 µM | > 100 µM | > 100 µM
25 | CC1C/C(=C\c2ccc(O)c(O)c2)C(=O)/C(=C/c2ccc(O)c(O)c2)C1 (stereo unspecified) | 32.2 µM | 15.7 µM | 12.9 µM | 20.3 µM | 32.8 µM | 25.5 µM | – | 22.5 µM

Reference: PubChem BioAssay (NCI)
